Some results are limits rather than exact numbers.

In a melting point compilation (Tetko et al.; mined from patent text by program, amines drawn as free bases though some values may be those of a salt) one finds melting point data, which are given here for 90 compounds.

`FC(F)(F)c1cccc(C2=CCN(CCc3ccc4cc[nH]c4c3)CC2)c1` yielded a melting point of 168 to 169 °C.
Turning to `O=C(O)Cc1ccc2c(c1)Cc1ccccc1-2`, the melting point was in the range of 184 to 186 °C.
For `CCO/N=C1\CCc2ccccc2C1=Cc1ccc(S(C)(=O)=O)cc1` the value was 151 to 152 °C; for `COc1cc(F)ccc1CCN1c2nc(-c3ccncn3)cc(=O)n2CCC1(C)C`, 196 to 198 °C; for `Brc1ccc2oc3ccc(Br)cc3c2c1`, 226 °C.
On to `Clc1ccc2onc(Cl)c2c1`, for which the melting point fell in the range of 43 to 44 °C.
`COc1cc(C(C)C)c2c(c1)S(=O)(=O)N(COc1cc(C(F)(F)F)nn1C)C2=O` returned a melting point of 107 to 108 °C.
`CCN(CC)c1ccc(Cn2nc(-c3ccccc3O)nc2-c2ccccc2O)cc1` had a melting point of 125 to 127 °C.
`Cc1c(Cl)cc([N+](=O)[O-])c(NC(C)C)c1[N+](=O)[O-]` displayed a melting point of 69 to 73 °C.
The figure for `CCCCCCCCCCCCC1=C(Br)C(=O)c2ccccc2C1=O` is 98 to 100 °C.
As for `CCC(=O)OC(c1nc2c(C(F)(F)F)cccc2c(O)c1C(=O)Nc1nccs1)C(C)C` (stereo not given), the melting point is 222 °C.
The compound `C[C@@H](O)Cn1ccc2cc(F)c(F)cc21` returned a melting point of 114 to 116 °C.
On to `Cn1ncc(C(=O)Nc2ccc(F)cc2Cl)c1N`, for which the melting point is 176 to 177 °C.
Take `C[Si](C)(ON(Cc1ccccc1)Cc1ccccc1)ON(Cc1ccccc1)Cc1ccccc1`: the melting point fell in the range of 50 to 53 °C.
For `CC1(C(=O)O)CCCCC1O` (stereo not given) the value was 97 °C; for `CC(C)[C@@H](CO)NS(=O)(=O)c1ccc(Cl)cc1`, 83 to 85 °C.
In turn, `Cc1nc(N2CCN(CCCC(F)(F)F)C2=O)sc1-c1cc[nH]n1` returned a melting point of 185 to 186 °C.
In the case of `Nc1nc2ccc(C(O)C(CNC(=O)c3ccccc3)N3CCC(Cc4ccccc4)CC3)cc2s1` (stereo not given), the melting point is 160 to 162 °C.
`S=c1cc(-c2ccccc2)c(S)n[nH]1` yielded a melting point of 146 to 148 °C.
Turning to `CCC(CC)Nc1nc(NC(C)=O)nc(C(C)(C)F)n1`, the melting point is 109 to 111 °C.
`COc1cc(OC)nc(NC(=O)NS(=O)(=O)Nc2c(C)csc2C)n1` showed a melting point of 190 °C.
In turn, `CCCCCCCCCCCCCCCCCCC(CO)CO` came in with a melting point of 88 °C.
`O=C(NC(Cc1ccccc1)C(=O)O)c1ccc2cc(OCc3ccccc3)ccc2c1` (stereo not given) gave a melting point of 207 °C.
For `CC1c2cccc3c2N(CC3)c2ccccc2N1C(=O)CCN1CCN(c2ccccc2)CC1` (stereo not given), the melting point lay in the range of 139 to 141 °C.
Regarding `C=COC(=O)N1C[C@@H]2C(=O)CCC(c3ccccc3)(c3ccccc3)[C@@H]2C1` (racemic), the melting point is 178 °C.
For `Cc1ccc2c3c(c(=O)oc2c1)CN(CCN1CC2CCCC(C2)C1)CC3` the value was 150 to 152 °C; for `O=C1Cc2ccccc2C12COc1cc3c(cc12)OCC(Cc1ccccc1C(F)F)O3` (stereo not given), 191 to 193 °C.
As for `CCCCCCCCCCCCCCCCOCC(CO)OC` (stereo not given), the melting point amounted to 56 °C.
`CCCCCN1CC[C@@H](c2ccc(Cl)cc2)[C@H](CO)C1` (racemic) registered a melting point of 125 to 128 °C.
As for `C#Cc1cnn(-c2ccnc3cc(Cl)ccc23)c1`, the melting point is 174 to 175 °C.
Regarding `Cn1cc(-c2cccc(C(F)(F)F)c2)c(=O)c(-c2ccc(Cl)c(Cl)c2)c1`, the melting point was 109 to 112 °C.
In turn, `O=C1Nc2ccccc2Nc2ccsc21` came in with a melting point of 226 °C.
Compound `C[Si](C)(C)NS(C)(=O)=O` registered a melting point of 69 to 74.5 °C.
In turn, `CC(=O)C(=CNc1ccc(C2=NNC(=O)CC2)cc1)C(C)=O` displayed a melting point of 218 to 222 °C.
As to `NC(=O)CCCC1(c2ccccc2)CC(O)=CC(=O)O1` (stereo not given), the melting point is 51 to 54 °C.
The compound `COC(=O)c1ccc(C(=O)Nc2c(C)c(C)c3c(c2C)C(c2ccc(C(C)C)cc2)C(C)(C)O3)cc1` (stereo not given) returned a melting point of 220 to 223 °C.
In turn, `COc1cc(C=CC(=O)c2ccc(I)cc2O)cc(OC)c1OC` yielded a melting point of 140 to 141 °C.
Take `CN1C(=O)C(c2ccc(OC(F)F)cc2)(c2ccc(F)c(CF)c2)N=C1N` (stereo not given): the melting point was in the range of 70 to 73 °C.
As to `Cc1cc(-c2ccc(C(F)(F)F)cc2)nc(-c2cccc(-c3ccc(S(N)(=O)=O)s3)c2)c1`, the melting point is 211 °C.
`NC(=O)c1ccc(-c2ccccc2OCC2CC2)[nH]c1=O` yielded a melting point of 160 to 162 °C.
`Oc1cccc2c1CC(N1CCN(c3ncccn3)CC1)CC2` (stereo not given) gave a melting point greater than 300 °C.
For `CCCn1c(SC)nc2sccc2c1=O`, the melting point was 94 to 96 °C.
The figure for `COc1ccccc1C1CCC(=O)CC1(O)C(=O)O` (stereo not given) is 204 °C; for `O=C(CO)c1cc(O)c(O)c([N+](=O)[O-])c1` it is 208 to 210 °C.
Consider `N#CC1(C2(O)CCCCC2)Cc2cc3c(cc21)NCC3` (stereo not given), for which the melting point was 168 to 170 °C.
`CN(C)c1ccc(C(=O)CCCN2CCC(C(O)(c3ccccc3)c3ccccc3)CC2)cc1` returned a melting point of 148 to 150 °C.
For the compound `CCCOC(=O)C1=C(C)NC(C#N)=C(C(=O)OC)C1c1ccccc1C#N` (stereo not given), the melting point was in the range of 150 to 152 °C.
As to `NC(=O)c1ccc(Nc2ccncc2)cc1`, the melting point lay within 223 to 226 °C.
Take `O=C(Cl)C(OCc1ccc(-c2ccc(Cl)cc2)cc1)(C(F)(F)F)C(F)(F)F`: the melting point was in the range of 30 to 35 °C.
Compound `COc1ccc(Cl)cc1-c1c(N)c(=O)[nH]c2cc([N+](=O)[O-])ccc12` showed a melting point of 293 to 295 °C.
As for `COc1cc(OC)c(-c2cccs2)cc1/C=C/C(=O)c1ccc(S(=O)(=O)Nc2ccccn2)cc1`, the melting point fell in the range of 141 to 143 °C.
The compound `COc1ccc(/C(=C\C=C\C(=O)O)c2ccccc2)cc1` returned a melting point of 184 to 185 °C.
`CCN1C(=O)C(C)(C)C(=O)N(C)c2cc(CN(CCn3c(=O)ccc4ccccc43)Cc3ccc(C)nc3C)ccc21` displayed a melting point of 159 to 160 °C.
On to `COc1ccc(C(c2ccc(OC)cc2)c2cnccc2C(=O)O)cc1`, for which the melting point was in the range of 122 to 124 °C.
The compound `CC(C)(C)OC(=O)Nc1cc(N2CCC(OC3CCCCO3)C2)c(-c2ccc(F)cc2)cc1NC(=O)CC(=O)c1cccc(-n2ccnc2)c1` (stereo not given) gave a melting point of 99 to 103 °C.
Turning to `O=C(NC1CC1)c1cc([N+](=O)[O-])[nH]n1`, the melting point was 206 °C.
On to `O=C(O)COC1(Cl)CC(c2ccccc2)=Nc2ccccc21` (stereo not given), for which the melting point was found to be 230 °C.
As for `CN(CC1CCCCN1CC(=O)N1c2ccccc2NC(=O)c2ccccc21)C1CCCCC1` (stereo not given), the melting point is 146 to 148 °C.
`COc1cccc(C#Cc2ccccc2)c1` displayed a melting point of 70 °C.
Take `CC(C)Oc1ccc(C(=O)[NH+]([O-])c2c(Cl)cncc2Cl)c2c1oc1ccccc12` (stereo not given): the melting point is 247 to 248 °C.
`CCCCNC(=O)Oc1ccc(Oc2ccc(OC)cc2)cc1` gave a melting point of 63 to 64 °C.
The compound `c1ccc(-c2ccc(OC3CN(C(c4ccccc4)c4ccccc4)C3)cc2)cc1` showed a melting point of 141 to 142 °C.
Take `CCOC(=O)c1c(COC(C)=O)[nH]c(=O)n1C(C)=O`: the melting point was 138 to 139 °C.
The figure for `O=C(O)Cc1cc(C(=O)Cc2ccc(C(=O)O)cc2)ccc1O` is greater than 260 °C.
In turn, `COC(=O)c1cc(C(=O)OC)cc(N2C(=O)C=CC2=O)c1` yielded a melting point of 186 to 187 °C.
The figure for `O=C1OC2(CCN(C(=O)Nc3cnc(-c4ccccc4)cn3)CC2)c2ccc(F)cc21` is 236 to 238 °C.
Consider `CN1CCC(O)(c2ccccc2C(O)c2ccccc2)CC1` (stereo not given), for which the melting point lay within 190 to 191 °C.
Compound `COc1ccc2[nH]cc(-c3cc4c(C#N)ccnc4[nH]3)c2c1` came in with a melting point of 303 to 304 °C.
The compound `c1ccc(CCc2[nH]ncc2-c2ccncc2)cc1` came in with a melting point of 125 to 131 °C.
`COC(=O)N=C1SCC(=O)N1c1c(-c2ccccc2)csc1NC(=O)CN(C)C` showed a melting point of 124 to 126 °C.
For `COC(=O)c1ccc(Cn2nc(-c3ccc(OC)cc3)c(-c3ccc(OC)cc3)cc2=O)cc1`, the melting point was in the range of 186 to 187 °C.
In turn, `C[C@H](NC(=O)c1ccc(C(N)=NO)cc1)C(=O)N1CCC(OCC(=O)OCOC(=O)C(C)(C)C)CC1` showed a melting point of 126 °C.
The figure for `COC(=O)c1cc(CN=[N+]=[N-])cc([N+](=O)[O-])c1` is 44 to 46 °C; for `Cn1c(=O)n(CC2(C)Cn3cc([N+](=O)[O-])nc3O2)c2ccccc21` (stereo not given) it is 203 to 204 °C; for `OC(=S)Cc1ccc(Cl)cc1` it is 106 °C.
For `OCCN1CCC(=C2c3sccc3CCn3ccnc32)CC1`, the melting point is 155 °C.
Turning to `CSc1ccc(Cn2c(C)c(CC(=O)O)c3cc(OCc4nc5ccccc5s4)ccc32)cc1`, the melting point fell in the range of 186 to 187 °C.
For `O=C(CCC(=O)N1CCC(c2ccc(Cl)cc2)CC1)c1ccc2c(c1)CCN(CCn1cccc1)CC2` the value was 96 to 97 °C; for `CCN(CC)c1cc(C)nc(-c2ccncc2)n1`, 205 to 208 °C.
The figure for `O=C(O)c1ncn2c1[C@@H]1CCN1C(=O)c1c(Br)cccc1-2` is 178 to 180 °C.
As for `CN1CCN(C2=Nc3ccc(F)cc3Nc3sc4cc(Br)ccc4c32)CC1`, the melting point lay in the range of 219 to 221 °C.
Take `N#Cc1ccc(C=O)c(-c2ccco2)c1`: the melting point was 125 °C.
`CC(C)Cn1c(=O)n(C)c(=O)c2cc(Cn3cnc4ccccc43)sc21` displayed a melting point of 198 to 199 °C.
On to `CS(=O)(=O)c1cccc(NC(=O)c2cnn3c(C(F)F)cc(-c4ccc(OC(F)(F)F)cc4)nc23)c1`, for which the melting point was determined as 223 °C.
For the compound `CC(C)(C)OC(=O)NCc1ccc2cc(C(N)=O)[nH]c2c1`, the melting point was in the range of 209 to 210 °C.
For `CCCCOC(=O)NC(=O)C(c1ccccc1)c1ccccc1` the value was 82 to 84 °C; for `NC(=O)c1ccc(F)c2c1CC([N+](=O)[O-])CO2` (stereo not given), 184 to 186 °C.
In turn, `COc1cc(N)c(Cl)cc1C(=O)NC1CCN(CC2CCN(C(=O)N(C)C)CC2)CC1` returned a melting point of 124 to 126 °C.
The figure for `CC(=O)c1ccc(Cc2cn(-c3ccc(F)cc3)c3ncccc3c2=O)cc1` is 227 to 229 °C.
In the case of `CCOC(=O)c1cn(-c2csnn2)c2nc(Cl)c(F)cc2c1=O`, the melting point lay within 188 to 192 °C.

The term melting point denotes the temperature, or range, at which the solid turns liquid.
